One molecule from publication PMC6934184, “Selective DNA-PKcs inhibition extends the therapeutic index of localized radiotherapy and chemotherapy” (The Journal of Clinical Investigation, 2019) can be followed below.

The assay has as its target T1, BMPR2 (Homo sapiens, UniProt Q13873).
T1 construct: purchased Thermo Fisher Scientific (Life Technologies) SelectScreen
In words: SelectScreen LanthaScreen. The assay is classed as binding. The following applies: 1 µM. Summed up: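 Percent values come from Thermo SelectScreen profiling of NU5455, combining activity and binding assays. CSF1R was run in Z'LYTE format at Km app ATP, and CAMK1 in Adapta format with ATP listed at 10.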
A general note: In TR-FRET formats the signal depends on donor and acceptor labels being close together.

T1 sequence (Q13873 27-1038): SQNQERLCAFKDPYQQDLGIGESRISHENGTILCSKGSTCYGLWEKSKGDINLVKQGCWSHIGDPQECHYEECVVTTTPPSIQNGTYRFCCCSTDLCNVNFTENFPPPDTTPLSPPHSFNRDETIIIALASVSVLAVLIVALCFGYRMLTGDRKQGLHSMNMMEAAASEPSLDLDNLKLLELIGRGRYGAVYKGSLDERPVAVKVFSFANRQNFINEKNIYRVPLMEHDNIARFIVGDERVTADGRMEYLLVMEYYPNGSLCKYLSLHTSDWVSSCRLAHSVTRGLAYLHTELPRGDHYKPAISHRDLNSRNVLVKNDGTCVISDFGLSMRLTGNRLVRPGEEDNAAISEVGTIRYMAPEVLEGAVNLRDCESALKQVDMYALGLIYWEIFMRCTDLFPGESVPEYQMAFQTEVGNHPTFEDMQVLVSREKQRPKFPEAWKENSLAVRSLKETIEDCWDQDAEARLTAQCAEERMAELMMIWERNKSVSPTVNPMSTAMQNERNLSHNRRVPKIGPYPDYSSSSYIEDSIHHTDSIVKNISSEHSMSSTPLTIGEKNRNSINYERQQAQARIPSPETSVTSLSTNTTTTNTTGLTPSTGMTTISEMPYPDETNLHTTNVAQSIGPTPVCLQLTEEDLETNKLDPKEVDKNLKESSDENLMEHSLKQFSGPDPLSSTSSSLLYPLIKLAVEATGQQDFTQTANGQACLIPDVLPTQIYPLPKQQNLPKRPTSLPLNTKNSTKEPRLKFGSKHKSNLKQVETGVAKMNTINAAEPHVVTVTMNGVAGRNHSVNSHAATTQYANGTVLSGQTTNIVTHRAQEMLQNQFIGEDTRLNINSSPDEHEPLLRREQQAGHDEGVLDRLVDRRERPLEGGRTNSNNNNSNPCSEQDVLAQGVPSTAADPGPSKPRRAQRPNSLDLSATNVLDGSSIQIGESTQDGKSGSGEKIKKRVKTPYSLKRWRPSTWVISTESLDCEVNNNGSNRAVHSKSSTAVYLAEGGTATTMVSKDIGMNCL

`CN(C(=O)CN1CCOCC1)c1ccc2sc3c(-c4cccc5c(=O)cc(N6CC7CCC(C6)O7)oc45)cccc3c2c1` [NU5455]: the “% displacement” value was -2.5%.
